# Assay results taken from publication doi:10.1101/2025.10.06.680810v1 (biorxiv, 2025).
# Target: NLRP3 (purified) (Homo sapiens, UniProt Q96P20, K138A/K142A/R137C)
# Assay: fluorescence polarization displacement
# Format: binding
# NLRP3 (purified), sequence (Q96P20 136-1034 R137C/K138A/K142A): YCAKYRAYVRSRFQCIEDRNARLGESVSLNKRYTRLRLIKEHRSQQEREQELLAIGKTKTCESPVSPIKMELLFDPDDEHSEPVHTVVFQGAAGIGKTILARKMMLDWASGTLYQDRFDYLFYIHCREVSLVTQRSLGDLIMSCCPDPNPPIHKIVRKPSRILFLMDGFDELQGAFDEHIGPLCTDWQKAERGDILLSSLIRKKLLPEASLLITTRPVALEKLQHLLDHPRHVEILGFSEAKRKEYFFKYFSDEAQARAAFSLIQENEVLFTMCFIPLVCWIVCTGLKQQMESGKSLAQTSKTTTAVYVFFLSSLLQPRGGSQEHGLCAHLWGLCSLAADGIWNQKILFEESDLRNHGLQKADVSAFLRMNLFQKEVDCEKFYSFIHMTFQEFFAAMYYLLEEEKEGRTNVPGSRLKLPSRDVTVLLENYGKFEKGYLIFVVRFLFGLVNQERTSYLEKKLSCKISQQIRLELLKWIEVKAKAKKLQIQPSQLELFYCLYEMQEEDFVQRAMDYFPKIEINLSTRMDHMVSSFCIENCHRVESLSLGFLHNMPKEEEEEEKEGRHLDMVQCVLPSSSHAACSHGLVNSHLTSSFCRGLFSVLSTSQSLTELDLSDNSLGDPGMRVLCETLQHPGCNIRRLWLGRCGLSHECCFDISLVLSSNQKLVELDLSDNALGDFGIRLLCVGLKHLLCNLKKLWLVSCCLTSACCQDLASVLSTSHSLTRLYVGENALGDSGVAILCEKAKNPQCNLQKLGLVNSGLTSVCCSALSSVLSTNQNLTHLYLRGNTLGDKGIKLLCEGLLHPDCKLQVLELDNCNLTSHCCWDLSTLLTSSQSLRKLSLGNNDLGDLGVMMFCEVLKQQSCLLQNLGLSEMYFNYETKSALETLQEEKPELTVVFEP
compound,measurement,value
"O=C(CN1C[C@@H](C(F)(F)F)c2cc(I)ccc2C1=O)Nc1ncc(F)cn1 [TN-783, N-(5-fluoropyrimidin-2-yl)-2-[(4s)-6-iodo-1-oxo-4-(trifluoromethyl)-3,4-dihydroisoquinolin-2-yl]acetamide]",IC50,19.3 ± 2.2 nM
